The results in this text go back to ChEMBL document CHEMBL3627645, “Synthesis and activities of new indolopyrrolobenzodiazepine derivatives toward acute myeloid leukemia cells” (Bioorg Med Chem, 2015).

The structures appear in SMILES notation. The source made the active and inactive calls. The rule behind the calls is not given here.

For data set [1], the target named is T1, Serine/threonine-protein kinase pim-3 (Homo sapiens, UniProt Q86V86). Put plainly: Inhibition of human Pim-3 using RSRHSSYPAGT as substrate assessed as residual activity at 10 uM measured for 30 mins in presence of [gamma-33P]-ATP relative to control.
The target in data set [2] is T2, Serine/threonine-protein kinase pim-1 (Homo sapiens, UniProt P11309). Put plainly: Inhibition of human Pim-1 using RSRHSSYPAGT as substrate assessed as residual activity at 10 uM measured for 30 mins in presence of [gamma-33P]-ATP relative to control.
Target sequence in this assay (P11309 whole entry, looked up): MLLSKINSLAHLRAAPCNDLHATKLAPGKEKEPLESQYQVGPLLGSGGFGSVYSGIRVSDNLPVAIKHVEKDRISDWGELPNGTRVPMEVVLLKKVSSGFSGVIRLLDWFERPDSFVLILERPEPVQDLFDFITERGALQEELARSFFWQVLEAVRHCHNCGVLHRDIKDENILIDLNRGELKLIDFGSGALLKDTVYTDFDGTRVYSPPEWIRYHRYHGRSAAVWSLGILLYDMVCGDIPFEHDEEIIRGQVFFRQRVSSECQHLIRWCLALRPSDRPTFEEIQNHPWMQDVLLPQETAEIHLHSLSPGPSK
In data set [3] the target is T2, Serine/threonine-protein kinase pim-1. Put plainly: Inhibition of human Pim-1 using RSRHSSYPAGT as substrate assessed as residual activity at 1 uM measured for 30 mins in presence of [gamma-33P]-ATP relative to control.
Target sequence in this assay (P11309 whole entry, looked up): as above
The target of data set [4] is T1, Serine/threonine-protein kinase pim-3. Put plainly: Inhibition of human Pim-3 using RSRHSSYPAGT as substrate assessed as residual activity at 1 uM measured for 30 mins in presence of [gamma-33P]-ATP relative to control.
The test system of data set [5] is IPC81. Kind of data set: Induction of apoptosis in rat IPC81 cells overexpressing Bcl-2 assessed as chromatin condensation and fragmentation at 10 to 100 uM after 48 hrs by Hoechst 33342 staining-based visual and UV microscopic analysis. It is filed as functional, cell-based.
Data set [6] has as its system NRK. Kind of data set: Induction of apoptosis in NRK cells assessed as chromatin condensation and fragmentation at 10 to 100 uM after 48 hrs by Hoechst 33342 staining-based UV-vis microscopic analysis. It is filed as cell-based. As to conditions: rat.
In data set [7] the target is T2, Serine/threonine-protein kinase pim-1. Put plainly: Inhibition of human Pim-1 using RSRHSSYPAGT as substrate measured for 30 mins in presence of [gamma-33P]-ATP.
Target sequence in this assay (P11309 whole entry): as the sequence (P11309 whole entry, looked up) above
Data set [8] deals with T1, Serine/threonine-protein kinase pim-3. Put plainly: Inhibition of human Pim-3 using RSRHSSYPAGT as substrate measured for 30 mins in presence of [gamma-33P]-ATP.
Data set [9] concerns IPC81. Put plainly: Induction of apoptosis in rat IPC81 cells assessed as chromatin condensation and fragmentation at 10 to 100 uM after 48 to 72 hrs by Hoechst 33342 staining-based visual and UV microscopic analysis. It is filed as functional, cell-based.
Data set [10] has as its system IPC81. Kind of data set: Induction of apoptosis in rat IPC81 cells assessed as chromatin condensation and fragmentation at 100 uM after 72 hrs by Hoechst 33342 staining-based visual and UV microscopic analysis. It is filed as functional, cell-based.
In data set [11] the target is T1, Serine/threonine-protein kinase pim-3. Kind of data set: Inhibition of Pim-3 (unknown origin).
In data set [12] the target is T2, Serine/threonine-protein kinase pim-1. Kind of data set: Inhibition of Pim-1 (unknown origin).
Target sequence in this assay (P11309 whole entry): as the sequence (P11309 whole entry, looked up) above

For the compound `O=Cc1cn2c3c1ccc1c4ccccc4n(c13)CC(OCCCN1CCCC1)C2` (centres undefined), the Activity amounted to 18.3% in data set [1], 24.1% in data set [2], 58% in data set [3] and 54% in [4].
For `O=Cc1cn2c3c1ccc1c4ccccc4n(c13)CC(OCCN1CCCC1)C2` (centres undefined), in that order: 16.4%, 17.8%, 84% and 48%.
As to `O=Cc1cn2c3c1ccc1c4ccccc4n(c13)CC(OCCCN1CCOCC1)C2` (centres undefined), the Activity was 24% in data set [1], 28% in [2], 75% in data set [3] and 70% in [4].
Taken in the same sequence, the figures for `Cc1ccc(S(=O)(=O)NC2Cn3cc(C=O)c4ccc5c6ccccc6n(c5c43)C2)cc1` (centres undefined) were 34%, 32%, 52% and 55%.
As usually defined, the IC50 is the concentration at which inhibition is half-maximal. Turning to `N#CCOC1Cn2cc(C=O)c3ccc4c5ccccc5n(c4c32)C1` (centres undefined), the Activity was 5% in data set [1]; “Toxic” in data set [6]; 1.9% in data set [2]; 9.5% in [3]; 10.3% in [4]. For the same compound, the outcome in data set [5] and in data set [9] was inactive. The IC50 was 390 nM in [7] and 190 nM in data set [8].
On to `O=Cc1cn2c3c1ccc1c4ccccc4n(c13)CC(OCCO)C2` (centres undefined), for which the Activity is 10.8% in data set [1]; “Toxic” in data set [6]; 9% in data set [2]; 44% in data set [3]; 30% in [4]. Besides, the outcome in [10] and in data set [9] was Active. Moreover, in data set [5], the outcome was inactive. The IC50 came out at 1100 nM in [7] and 700 nM in data set [8].
Regarding `CCN(CC)CCCOC1Cn2cc(C=O)c3ccc4c5ccccc5n(c4c32)C1` (centres undefined), the Activity in [1] turned out to be 24%; in [2], 29%; in data set [3], 71.6%; in data set [4], 60.8%.
Take `O=Cc1cn2c3c1ccc1c4ccccc4n(c13)CC(OCCN1CCCCC1)C2` (centres undefined): the Activity amounted to 22.2% in [1], 30% in [2], 82% in data set [3] and 54% in data set [4].
In the case of `CCN(CC)CCOC1Cn2cc(C=O)c3ccc4c5ccccc5n(c4c32)C1` (centres undefined), the Activity in data set [1] is 28%; in data set [2], 35%; in data set [3] it was 78%; in data set [4], 59%.
As for `O=Cc1cn2c3c1ccc1c4ccccc4n(c13)CC(OCCCN1CCCCC1)C2` (centres undefined), the Activity in [1] is 20%; in data set [6] it was “Non-toxic”; in data set [2], 31%; in data set [3], 66%; in data set [4], 45%. Further, the outcome in data set [10], in data set [5] and in data set [9] was Active.
Regarding `O=Cc1cn2c3c1ccc1c4ccccc4n(c13)CCC2`, the IC50 in data set [11] came out at 50 nM; in data set [12], 42 nM.
For `Cc1ccc(S(=O)(=O)OCCOC2Cn3cc(C=O)c4ccc5c6ccccc6n(c5c43)C2)cc1` (centres undefined), the Activity in data set [1] amounted to 80%; in data set [2] it was 102%; in data set [3], 78%; in [4] it was 65%.
`CS(=O)(=O)OC1Cn2cc(C=O)c3ccc4c5ccccc5n(c4c32)C1` (centres undefined): the Activity in data set [1] was found to be 8.1%; in data set [2], 6.6%; in data set [3], 24%; in data set [4], 25%. The IC50 in data set [7] amounted to 1560 nM; in [8], 600 nM.
Take `O=Cc1cn2c3c1ccc1c4ccccc4n(c13)CC(OCCCBr)C2` (centres undefined): the Activity was 11% in data set [1]; “Non-toxic” in data set [6]; 19% in data set [2]; 54% in data set [3]; 40% in [4]. Moreover, the result in data set [5] and in [9] was inactive. Also, the IC50 in data set [7] was determined as 740 nM; in data set [8], 340 nM.
`O=Cc1cn2c3c1ccc1c4ccccc4n(c13)CC(OCCN1CCOCC1)C2` (centres undefined): the Activity in data set [1] turned out to be 35%; in [2] it was 34%; in [3], 57%; in data set [4], 65.8%.
In the case of `O=Cc1cn2c3c1ccc1c4ccccc4n(c13)CC(O)C2` (centres undefined), the Activity in data set [1] was 3.5%; in data set [2], 5%; in data set [3] it was 38%; in [4] it was 13.3%. The IC50 in data set [7] turned out to be 1400 nM; in [8], 380 nM.
Regarding `O=Cc1cn2c3c1ccc1c4ccccc4n(c13)CCCCC2`, the results for the IC50 in data set [11] and in [12] were 26 nM and 9 nM, respectively.
Consider `CN1CCN(CCCOC2Cn3cc(C=O)c4ccc5c6ccccc6n(c5c43)C2)CC1` (centres undefined), for which the Activity in [1] came to 26%; in data set [2], 22.4%; in data set [3], 58.2%; in data set [4], 51%.
For `O=Cc1cn2c3c1ccc1c4ccccc4n(c13)CC(OCCCO)C2` (centres undefined), in that order: 16%, 21%, 54.9% and 49.6%.
Regarding `Cc1ccc(S(=O)(=O)OCCCOC2Cn3cc(C=O)c4ccc5c6ccccc6n(c5c43)C2)cc1` (centres undefined), the Activity in data set [1] was found to be 79%; in [2] it was 94%; in data set [3], 81%; in [4] it was 70.8%.
Regarding `CN1CCN(CCOC2Cn3cc(C=O)c4ccc5c6ccccc6n(c5c43)C2)CC1` (centres undefined), the Activity in data set [1] came out at 28%; in data set [2], 35%; in data set [3], 94%; in data set [4], 60%.
